Measured values published in patent US20120255051A1, “HERBICIDE TOLERANT PLANTS” (priority 2009, published 2012).

Test system: Brassica plants comprising mutant AHAS alleles
Experiment: Field trial, pre-planting treatment (0, 10, 20, 30 g a.i./ha), two locations in Canada: ERG, EST1, EST2, PPTOX, VIG1, VIG2, VIG3 scores
Assay type: in vivo, Brassica napus
Details: for establishment (EST1) score Av, 14 days after sowing / emergence (ERG) score Av: AHAS1 WT
Excerpt: Tests were set up and conducted to asses the growth and performance of plants comprising AHAS full knock-out alleles, and to further analyze the correlation between the presence of full knockout and missense AHAS genes in Brassica plants and plant growth and herbicide tolerance of the Brassica plants in the field. To this end, the Brassica plants identified in Example 1 and 2 were backcrossed two times with an elite parent line, and subsequently selfed twice to obtain homozygous plants (BC2S2). Plants were grown as row plots in a split plot design with three replicates (main plots=herbicide treatments, subplots=genotypes) at two locations in Canada. Treatment pre-planting was carried out on the soil about two days before sowing with a dose of 0 (treatment A), 10 (treatment B), 20 (treatment C) or 30 (treatment D) g a.i./ha of thiencarbazone methyl. Herbicide tolerance was measured by scoring for different parameters. The parameter emergence (ERG) was scored at the cotyledon stage on a scale 1-9, where 1 means late emergence and 9 means early emergence. Establishment was scored 14 days after sowing (EST1) and 21 days after sowing (EST2). Scores were from 1 to 9, where 1 is the worst establishment (least plants that emerged), and 9 is the best establishment (most plants emerged). Phytotoxicity (PPTOX) was determined after establishment. Plants were evaluated on a scale of 1 to 9, where 1=completely yellowing, 5=50% of plant is yellow and 9=no yellowing. The vigor scores (see above) were determined at 1-2 leaf stage (VIG1), 7 days after VIG1 (VIG2) and 14 days after VIG1 (VIG3). The average values (Av) and standard deviations (SD) of the scores for the different parameters are represented in Table 7a-g.
Further, the contribution of the knock-out allele to herbicide tolerance conferred by the missense allele was calculated. First, the scores were corrected for a possible effect of the growth per se, independent of herbicide treatment. To this end, the scores for treatments B, C and D were divided by the scores for treatment A for the same genotype and for the same parameter (corrected herbicide tolerance scores). Next, the effect of the knock-out allele to these corrected herbicide tolerance scores obtained by the missense allele was calculated. Therefore, the corrected herbicide tolerance scores for the missense—knock-out allele combination was divided by the corrected herbicide tolerance scores for the missense allele—wild-type combination. In case the knock-out allele has no effect on herbicide tolerance conferred by the missense allele, this ratio should be 1. In case the knock-out allele positively contributes to the herbicide tolerance conferred by the missense allele, this ratio should be higher than 1. The results for the contribution of the knock-out allele to herbicide tolerance conferred by the missense allele as calculated above are shown in table 8.

[1] = AHAS3 HETO111 (HETO108+HETO111 series), treatment B 10 g a.i./ha pre-planting, Location B
[2] = AHAS3 HETO111 (HETO108+HETO111 series), treatment C 20 g a.i./ha pre-planting, Location A
[3] = AHAS3 HETO111 (HETO108+HETO111 series), treatment C 20 g a.i./ha pre-planting, Location B
[4] = AHAS3 HETO111 (HETO108+HETO111 series), treatment D 30 g a.i./ha pre-planting, Location A
[5] = AHAS3 HETO111 (HETO108+HETO111 series), treatment D 30 g a.i./ha pre-planting, Location B
[6] = AHAS3 HETO111 (HETO112+HETO111 series), treatment B 10 g a.i./ha pre-planting, Location A
[7] = AHAS3 HETO111 (HETO112+HETO111 series), treatment B 10 g a.i./ha pre-planting, Location B
[8] = AHAS3 HETO111 (HETO112+HETO111 series), treatment C 20 g a.i./ha pre-planting, Location A
[9] = AHAS3 HETO111 (HETO112+HETO111 series), treatment C 20 g a.i./ha pre-planting, Location B
[10] = AHAS3 HETO111 (HETO112+HETO111 series), treatment D 30 g a.i./ha pre-planting, Location A
[11] = AHAS3 HETO111 (HETO112+HETO111 series), treatment D 30 g a.i./ha pre-planting, Location B
[12] = AHAS3 WT (HETO108+HETO104 series), treatment B 10 g a.i./ha pre-planting, Location A
[13] = AHAS3 WT (HETO108+HETO104 series), treatment B 10 g a.i./ha pre-planting, Location B
[14] = AHAS3 WT (HETO108+HETO104 series), treatment C 20 g a.i./ha pre-planting, Location A
[15] = AHAS3 WT (HETO108+HETO104 series), treatment C 20 g a.i./ha pre-planting, Location B
[16] = AHAS3 WT (HETO108+HETO104 series), treatment D 30 g a.i./ha pre-planting, Location A
[17] = AHAS3 WT (HETO108+HETO104 series), treatment D 30 g a.i./ha pre-planting, Location B
[18] = AHAS3 WT (HETO108+HETO111 series), treatment B 10 g a.i./ha pre-planting, Location A
[19] = AHAS3 WT (HETO108+HETO111 series), treatment B 10 g a.i./ha pre-planting, Location B
[20] = AHAS3 WT (HETO108+HETO111 series), treatment C 20 g a.i./ha pre-planting, Location A
[21] = AHAS3 WT (HETO108+HETO111 series), treatment C 20 g a.i./ha pre-planting, Location B
[22] = AHAS3 WT (HETO108+HETO111 series), treatment D 30 g a.i./ha pre-planting, Location A
[23] = AHAS3 WT (HETO108+HETO111 series), treatment D 30 g a.i./ha pre-planting, Location B
[24] = AHAS3 WT (HETO112+HETO111 series), treatment B 10 g a.i./ha pre-planting, Location A
[25] = AHAS3 WT (HETO112+HETO111 series), treatment B 10 g a.i./ha pre-planting, Location B
[26] = AHAS3 WT (HETO112+HETO111 series), treatment C 20 g a.i./ha pre-planting, Location A
[27] = AHAS3 WT (HETO112+HETO111 series), treatment C 20 g a.i./ha pre-planting, Location B
[28] = AHAS3 WT (HETO112+HETO111 series), treatment D 30 g a.i./ha pre-planting, Location A
[29] = AHAS3 WT (HETO112+HETO111 series), treatment D 30 g a.i./ha pre-planting, Location B

Compound: COC(=O)c1csc(C)c1S(=O)(=O)NC(=O)n1nc(OC)n(C)c1=O [thiencarbazone-methyl, methyl 4-[(4,5-dihydro-3-methoxy-4-methyl-5-oxo-1H-1,2,4-triazol-1-yl)carbonylsulfamoyl]-5-methylthiophene-3-carboxylate]
- establishment (EST1) score Av, 14 days after sowing (AHAS3 HETO111 (HETO108+HETO111 series), treatment B 10 g a.i./ha pre-planting, Location A): 5.00
- emergence (ERG) score Av [1]: 5.00
- establishment (EST1) score Av, 14 days after sowing [1]: 6.00
- emergence (ERG) score Av [2]: 4.67
- establishment (EST1) score Av, 14 days after sowing [2]: 5.33
- emergence (ERG) score Av [3]: 4.00
- establishment (EST1) score Av, 14 days after sowing [3]: 4.67
- emergence (ERG) score Av [4]: 4.33
- establishment (EST1) score Av, 14 days after sowing [4]: 4.33
- emergence (ERG) score Av [5]: 4.00
- establishment (EST1) score Av, 14 days after sowing [5]: 4.33
- emergence (ERG) score Av [6]: 5.33
- establishment (EST1) score Av, 14 days after sowing [6]: 5.67
- emergence (ERG) score Av [7]: 4.67
- establishment (EST1) score Av, 14 days after sowing [7]: 6.00
- emergence (ERG) score Av [8]: 4.33
- establishment (EST1) score Av, 14 days after sowing [8]: 4.67
- emergence (ERG) score Av [9]: 4.67
- establishment (EST1) score Av, 14 days after sowing [9]: 4.67
- emergence (ERG) score Av [10]: 4.33
- establishment (EST1) score Av, 14 days after sowing [10]: 4.33
- emergence (ERG) score Av [11]: 3.67
- establishment (EST1) score Av, 14 days after sowing [11]: 4.00
- emergence (ERG) score Av [12]: 1.00
- establishment (EST1) score Av, 14 days after sowing [12]: 1.00
- emergence (ERG) score Av [13]: 3.00
- establishment (EST1) score Av, 14 days after sowing [13]: 4.33
- emergence (ERG) score Av [14]: 1.00
- establishment (EST1) score Av, 14 days after sowing [14]: 1.00
- emergence (ERG) score Av [15]: 1.67
- establishment (EST1) score Av, 14 days after sowing [15]: 3.67
- emergence (ERG) score Av [16]: 1.00
- establishment (EST1) score Av, 14 days after sowing [16]: 1.00
- emergence (ERG) score Av [17]: 1.33
- establishment (EST1) score Av, 14 days after sowing [17]: 1.33
- emergence (ERG) score Av [18]: 2.33
- establishment (EST1) score Av, 14 days after sowing [18]: 2.67
- emergence (ERG) score Av [19]: 3.33
- establishment (EST1) score Av, 14 days after sowing [19]: 4.33
- emergence (ERG) score Av [20]: 1.00
- establishment (EST1) score Av, 14 days after sowing [20]: 1.00
- emergence (ERG) score Av [21]: 2.33
- establishment (EST1) score Av, 14 days after sowing [21]: 4.00
- emergence (ERG) score Av [22]: 1.00
- establishment (EST1) score Av, 14 days after sowing [22]: 1.00
- emergence (ERG) score Av [23]: 1.33
- establishment (EST1) score Av, 14 days after sowing [23]: 1.00
- emergence (ERG) score Av [24]: 1.00
- establishment (EST1) score Av, 14 days after sowing [24]: 1.00
- emergence (ERG) score Av [25]: 3.67
- establishment (EST1) score Av, 14 days after sowing [25]: 5.00
- emergence (ERG) score Av [26]: 1.00
- establishment (EST1) score Av, 14 days after sowing [26]: 1.00
- emergence (ERG) score Av [27]: 1.67
- establishment (EST1) score Av, 14 days after sowing [27]: 3.33
- emergence (ERG) score Av [28]: 1.00
- establishment (EST1) score Av, 14 days after sowing [28]: 1.00
- emergence (ERG) score Av [29]: 1.33
- establishment (EST1) score Av, 14 days after sowing [29]: 1.67
- establishment (EST2) score, Av (AHAS1 WT/AHAS3 HETO104, 10 g a.i./ha pre-planting (B), Location A): 2.33
